Key:
[1] = 19F NMR line width / signal intensity of the measuring fluorine atom; assay type: physicochemical; conditions: in comparison to prior art compound (compound of Example 2 with Y meaning hydrogen); for line width smaller by: signal of the measuring fluorine atom
Excerpt: In comparison to the structurally closest compounds of the prior art, the compounds according to the invention show clearly thinner signals for the measuring fluorine atom, so that an identically intensive signal is obtained with a smaller dosage.

histamine release = histamine release in comparison to structurally closest previously-known compound; assay type: in vivo; conditions: multiple of the dosage of the previously-known comparison substance (compound of Example 2 with Y meaning hydrogen)
Excerpt: (§1) An equally high (undesirable) histamine release is observed with the compound of Example 2 only with the 30-fold dosage of the above-mentioned previously-known comparison substance.

[2] = compatibility in comparison to structurally closest previously-known compound; assay type: in vivo; conditions: than structurally closest previously-known compound (compound of Example 2 with Y meaning hydrogen)
Excerpt: as §1

## O=C(O)CCS(=O)(=O)Nc1ccc(F)c(CC(=O)NC(CO)C(O)CO)c1C(F)(F)F (centres unmarked) [Example 2, 3-{N-[4-Fluoro-2-trifluoromethylphenyl-3-acetic acid-N-(1-hydroxy-2,3-dihydroxypropyl)-amide]-sulfamoyl}-propionic acid]
[1]
  line width smaller by: 12%
Histamine release
  dosage giving equally high (undesirable) histamine release: 30 -fold
[2]
  compatibility higher by: 50%

## O=C(Cc1cc(NS(=O)(=O)CC(F)(F)F)cc(CC(=O)NC(CO)C(O)CO)c1F)NC(CO)C(O)CO (centres unmarked) [Example 6]
[1]
  signal increase: ~50%
  line width smaller by: 25%

From US5686492A, “Disubstituted p-fluorobenzenesulfonamides” (Schering Aktiengesellschaft, priority 1994, dated 1997)
